Reference: ChEMBL document CHEMBL1137551, “Estrogen receptor dependent inhibitors of NF-kappaB transcriptional activation-1 synthesis and biological evaluation of substituted 2-cyanopropanoic acid derivatives: pathway selective inhibitors of NF-kappaB, a potential treatment for rheumatoid arthritis” (J Med Chem, 2007)
Activity calls are given as the source filed them. The rule behind the calls is not given here.

Assays:
[1] = (§1) Inhibition of ER dependent NF-kappaB expression in ER expressing HAECT1 cells by luciferase reporter gene assay; assay type: cell-based; conditions: Homo sapiens
[2] = test system: HAECT1; experiment: Inhibition of ER dependent NF-kappaB expression in ER expressing HAECT1 cells at 10 uM by luciferase reporter gene assay relative to E2; assay type: cell-based; conditions: Homo sapiens
[3] = test system: HAECT1; experiment: (§2) Inhibition of ER dependent creatine kinase expression in ER expressing HAECT1 cells; assay type: cell-based; conditions: Homo sapiens
[4] = as §2; assay type: cell-based; conditions: Homo sapiens
[5] = test system: HAECT1; experiment: Inhibition of ER dependent creatine kinase expression in ER expressing HAECT1 cells at 10 uM relative to E2; assay type: cell-based; conditions: Homo sapiens
[6] = test system: Mus musculus; experiment: Inhibition of NFkB mediated RANTES gene expression in C57BL/6 mouse at 5 mg/kg/day, po after 5 weeks; assay type: functional; conditions: C57BL/6, 840 h
[7] = test system: Mus musculus; experiment: Inhibition of NFkB mediated VCAM gene expression in C57BL/6 mouse at 5 mg/kg/day, po after 5 weeks; assay type: functional; conditions: C57BL/6, 840 h
[8] = test system: Mus musculus; experiment: Inhibition of NFkB mediated MHC gene expression in C57BL/6 mouse at 5 mg/kg/day, po after 5 weeks; assay type: functional; conditions: C57BL/6, 840 h
[9] = test system: Mus musculus; experiment: Inhibition of NFkB mediated TNFalpha gene expression in C57BL/6 mouse at 5 mg/kg/day, po after 5 weeks; assay type: functional; conditions: C57BL/6, 840 h
[10] = test system: Mus musculus; experiment: Increase in uterine wet weight in C57BL/6 mouse at 5 mg/kg/day, po after 5 days relative to control; assay type: functional
[11] = test system: Mus musculus; experiment: Inhibition of NFkB mediated RANTES gene expression in C57BL/6 mouse at 5 mg/kg/day, po after 5 weeks relative to 17-alpha-ethinyl-17beta-estradiol; assay type: functional; parameters: scale not given: the % may be the effect or the level left
[12] = test system: Mus musculus; experiment: Inhibition of NFkB mediated VCAM gene expression in C57BL/6 mouse at 5 mg/kg/day, po after 5 weeks relative to 17-alpha-ethinyl-17beta-estradiol; assay type: functional; parameters: scale not given: the % may be the effect or the level left
[13] = test system: Mus musculus; experiment: Inhibition of NFkB mediated MHC gene expression in C57BL/6 mouse at 5 mg/kg/day, po after 5 weeks relative to 17-alpha-ethinyl-17beta-estradiol; assay type: functional; parameters: scale not given: the % may be the effect or the level left
[14] = test system: Mus musculus; experiment: Inhibition of NFkB mediated TNFalpha gene expression in C57BL/6 mouse at 5 mg/kg/day, po after 5 weeks relative to 17-alpha-ethinyl-17beta-estradiol; assay type: functional; parameters: scale not given: the % may be the effect or the level left
[15] = test system: HAECT1; experiment: as §1; assay type: cell-based; conditions: Homo sapiens
[16] = test system: Rattus norvegicus; experiment: Inhibition of adjuvant-induced arthritis in Lewis rat assessed as improvement in synovial scoring at 0.3 mg/kg/day, po; assay type: functional; parameters: scale not given: the % may be the effect or the level left
[17] = target: T1, Estrogen receptor (Homo sapiens, UniProt P03372); experiment: Displacement of [3H]E2 from human ERalpha ligand binding domain
T1 sequence (P03372 whole entry): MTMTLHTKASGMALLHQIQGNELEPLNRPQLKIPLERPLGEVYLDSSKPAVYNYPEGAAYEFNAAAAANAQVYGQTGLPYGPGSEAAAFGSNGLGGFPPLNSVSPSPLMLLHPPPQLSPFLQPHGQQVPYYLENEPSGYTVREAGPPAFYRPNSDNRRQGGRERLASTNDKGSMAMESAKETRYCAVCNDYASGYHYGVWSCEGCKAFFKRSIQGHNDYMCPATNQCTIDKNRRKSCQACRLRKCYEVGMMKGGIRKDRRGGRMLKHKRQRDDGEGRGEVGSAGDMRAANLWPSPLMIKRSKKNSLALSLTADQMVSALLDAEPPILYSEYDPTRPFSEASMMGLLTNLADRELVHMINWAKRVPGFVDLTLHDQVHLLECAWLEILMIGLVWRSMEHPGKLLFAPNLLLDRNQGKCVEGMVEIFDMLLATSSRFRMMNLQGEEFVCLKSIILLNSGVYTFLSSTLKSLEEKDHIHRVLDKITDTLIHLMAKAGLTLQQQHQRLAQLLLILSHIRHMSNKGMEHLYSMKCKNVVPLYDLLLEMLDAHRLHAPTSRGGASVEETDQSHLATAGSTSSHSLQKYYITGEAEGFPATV

[18] = target: Estrogen receptor beta (Homo sapiens, UniProt Q92731); experiment: Displacement of [3H]E2 from human ERbeta ligand binding domain
Estrogen receptor beta, sequence (Q92731 whole entry, the tested form may be a part): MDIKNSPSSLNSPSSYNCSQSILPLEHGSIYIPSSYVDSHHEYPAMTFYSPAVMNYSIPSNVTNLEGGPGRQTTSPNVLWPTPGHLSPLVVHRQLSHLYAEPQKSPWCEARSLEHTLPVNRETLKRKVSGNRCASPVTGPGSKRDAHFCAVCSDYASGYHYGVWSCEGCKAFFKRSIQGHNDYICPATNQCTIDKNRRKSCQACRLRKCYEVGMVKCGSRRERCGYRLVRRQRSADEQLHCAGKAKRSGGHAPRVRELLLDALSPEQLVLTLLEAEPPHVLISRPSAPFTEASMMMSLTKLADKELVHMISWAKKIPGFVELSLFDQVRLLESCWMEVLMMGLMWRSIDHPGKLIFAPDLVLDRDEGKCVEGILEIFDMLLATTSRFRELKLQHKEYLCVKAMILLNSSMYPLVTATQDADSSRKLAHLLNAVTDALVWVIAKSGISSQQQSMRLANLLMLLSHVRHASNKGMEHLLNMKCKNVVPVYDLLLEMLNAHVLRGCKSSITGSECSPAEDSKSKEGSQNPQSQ

[19] = test system: Rattus norvegicus; experiment: Stimulation of uterine wet weight in Sprague-Dawley rat at 2 mg/kg/day; assay type: functional, organism-based
[20] = test system: Rattus norvegicus; experiment: Inhibition of 17-alpha-ethinyl-17beta-estradiol induced uterine wet weight in Sprague-Dawley rat at 2 mg/kg/day; assay type: functional, organism-based
[21] = test system: HAECT1; experiment: Inhibition of ER dependent NF-kappaB expression in ER expressing HAECT1 cells at 1 uM by luciferase reporter gene assay; assay type: cell-based; conditions: Homo sapiens
[22] = Inhibition of ER dependent IL6 expression in ER expressing HAECT1 cells; assay type: cell-based; conditions: Homo sapiens
[23] = test system: HAECT1; experiment: Inhibition of ER dependent IL6 expression in ER expressing HAECT1 cells at 10 uM relative to E2; assay type: cell-based; conditions: Homo sapiens
[24] = test system: Plasma; experiment: Stability in mouse plasma assessed as hydrolysis after 4 hr at 37 deg C; assay type: ADME, cell-free; parameters: scale not given: the % may be the effect or the level left
[25] = test system: Plasma; experiment: Stability in mouse plasma assessed as hydrolysis after 24 hr at 37 deg C; assay type: ADME, cell-free; parameters: scale not given: the % may be the effect or the level left

CCOC(=O)C(C)(C#N)C(c1ccccc1[N+](=O)[O-])c1cccc2ccccc12 (configuration not stated)
IC50 [1]: 268 nM | Efficacy [2]: 112% | Activity [3]: inactive

CCOC(=O)C(C)(C#N)C(c1cccc2ccccc12)c1cccc2ccccc12 (configuration not stated)
IC50 [1]: 206 nM | Efficacy [2]: 96% | Activity [3]: inactive

CCOC(=O)C(C#N)C(c1ccc(C)cc1)c1cccc2ccccc12 (configuration not stated)
IC50 [1]: 550 nM | Efficacy [2]: 64% | Activity [3]: inactive

CCOC(=O)C(C)(C#N)C(c1ccccc1SC)c1cccc2ccccc12 (configuration not stated)
IC50 [1]: 327 nM | Efficacy [2]: 65% | Activity [3]: inactive

COc1ccccc1[C@H](c1cccc2ccccc12)[C@@](C)(C#N)C(=O)N1CCN(c2cccc(Cl)c2C)CC1
IC50 [1]: 23 nM | Efficacy [2]: 99% | EC50 [4]: 84 nM | Efficacy [5]: 41% | inhibition in vivo at 5 mg/kg/day [6]: 35% | inhibition in vivo at 5 mg/kg/day [7]: 24% | inhibition in vivo at 5 mg/kg/day [8]: 20% | inhibition in vivo at 5 mg/kg/day [9]: 58% | Fold change [10]: 1.1 | Activity [11]: 45% | Activity [12]: 47% | Activity [13]: 41% | Activity [14]: 82%

CCOC(=O)C(C#N)C(c1ccccc1OC)c1cccc2ccccc12 (configuration not stated)
IC50 [1]: 139 nM | Efficacy [2]: 90% | EC50 [4]: 233 nM | Efficacy [5]: 32%

CCOC(=O)C(C#N)C(c1cccc(OC)c1)c1cccc2ccccc12 (configuration not stated)
Activity [15]: inactive | Activity [3]: inactive

COc1ccccc1[C@H](c1cccc2ccccc12)[C@@](C)(C#N)C(=O)N1CCC(c2cccc(C(F)(F)F)c2)CC1
IC50 [1]: 122 nM | Efficacy [2]: 94% | Activity [3]: inactive | inhibition in vivo at 5 mg/kg/day [6]: 50% | inhibition in vivo at 5 mg/kg/day [7]: 48% | inhibition in vivo at 5 mg/kg/day [8]: 42% | inhibition in vivo at 5 mg/kg/day [9]: 59% | Fold change [10]: 1 | Activity [16]: 50% | IC50 [17]: 2430 nM | IC50 [18]: 1500 nM | Activity [11]: 65% | Activity [12]: 94% | Activity [13]: 86% | Activity [14]: 83% | Activity [19]: inactive | Activity [20]: inactive

N#CC(C(N)=O)C(c1cccc2ccccc12)c1cccc2ccccc12 (configuration not stated)
IC50 [1]: 1900 nM | Efficacy [2]: 55% | Activity [3]: inactive

CCOC(=O)C(C#N)C(c1ccc2ccccc2c1)c1cccc2ccccc12 (configuration not stated)
IC50 [1]: 389 nM | Efficacy [2]: 76% | Activity [3]: inactive

CCOC(=O)C(C#N)C(c1ccccc1SC)c1cccc2ccccc12 (configuration not stated)
IC50 [1]: 118 nM | Efficacy [2]: 102% | EC50 [4]: 197 nM | Efficacy [5]: 24%

COc1ccccc1[C@H](c1cccc2ccccc12)[C@@](C)(C#N)C(=O)N1CCCCC1
IC50 [1]: 125 nM | Efficacy [2]: 92% | EC50 [4]: 259 nM | Efficacy [5]: 37%

CCOC(=O)C(C#N)C(c1ccccc1)c1cccc2ccccc12 (configuration not stated)
IC50 [1]: 792 nM | Efficacy [2]: 96% | Activity [3]: inactive

CCOC(=O)C(C#N)C(c1ccccc1C(F)(F)F)c1cccc2ccccc12 (configuration not stated)
IC50 [1]: 110 nM | Efficacy [2]: 106% | EC50 [4]: 240 nM | Efficacy [5]: 24%

CCOC(=O)C(C#N)C(c1cccc2ccccc12)c1ccnc2ccccc12 (configuration not stated)
Efficacy [2]: 4% | inhibition [21]: 3%

CCOC(=O)C(C#N)C(c1cccc2ccccc12)c1cccc2ccccc12 (configuration not stated)
IC50 [1]: 550 nM | Efficacy [2]: 96% | Activity [3]: inactive | IC50 [22]: 185 nM | Efficacy [23]: 91%

C#C[C@]1(O)CC[C@H]2[C@@H]3CCc4cc(O)ccc4[C@H]3CC[C@@]21C [ETHINYL ESTRADIOL]
inhibition in vivo at 5 mg/kg/day [6]: 58% | inhibition in vivo at 5 mg/kg/day [7]: 58% | inhibition in vivo at 5 mg/kg/day [8]: 64% | inhibition in vivo at 5 mg/kg/day [9]: 60% | Fold change [10]: 4

N#CC(C(=O)O)C(c1cccc2ccccc12)c1cccc2ccccc12 (configuration not stated)
Activity [15]: inactive | Activity [3]: inactive

CCOC(=O)C(C#N)C(c1ccc(OC)cc1OC)c1cccc2ccccc12 (configuration not stated)
Activity [15]: inactive | Activity [3]: inactive

CCOC(=O)C(C)(C#N)C(c1ccccc1OC)c1cccc2ccccc12 (configuration not stated)
IC50 [1]: 105 nM | Efficacy [2]: 110% | EC50 [4]: 98 nM | Efficacy [5]: 33%

COc1ccccc1C(c1cccc2ccccc12)C(C)(C#N)C(=O)OC(C)(C)C (configuration not stated)
IC50 [1]: 119 nM | Efficacy [2]: 94% | EC50 [4]: 38 nM | Efficacy [5]: 24% | Stability [24]: 32% | Stability [25]: 0%

CCOC(=O)C(C#N)C(c1ccccc1F)c1cccc2ccccc12 (configuration not stated)
Efficacy [2]: 32% | inhibition [21]: 19%
